Measurements as given in US20110105492A1, “ARYL SUBSTITUTED ARYLINDENOPYRIMIDINES AND THEIR USE AS HIGHLY SELECTIVE ADENOSINE A2a RECEPTOR ANTAGONISTS” (priority 2009, published 2011).

Tests used:
[1] = biological target: T1, human adenosine A1 receptor (Homo sapiens, UniProt P30542); assay: Adenosine A1 Receptor Functional Assay (A1GAL2); assay type: cell-based; conditions: CHO-K1 cells overexpressing human A1, cAMP inducible beta-galactosidase reporter, antagonist vs 4 nM r-PIA/1 uM Forskolin challenge
T1 construct: expressed in transfected cells; host or cells: CHO-K1 cells with a cAMP inducible beta-galactosidase reporter gene
T1 sequence (P30542 1-326): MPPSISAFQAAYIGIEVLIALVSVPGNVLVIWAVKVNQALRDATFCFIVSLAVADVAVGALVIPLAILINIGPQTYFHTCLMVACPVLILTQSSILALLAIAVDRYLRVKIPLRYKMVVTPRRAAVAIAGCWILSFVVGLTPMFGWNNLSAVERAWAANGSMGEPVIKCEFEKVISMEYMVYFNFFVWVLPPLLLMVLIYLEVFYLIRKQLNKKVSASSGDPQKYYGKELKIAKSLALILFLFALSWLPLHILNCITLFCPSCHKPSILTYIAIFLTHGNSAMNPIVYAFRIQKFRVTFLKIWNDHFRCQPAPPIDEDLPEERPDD
Procedure: Adenosine A1 Receptor Functional Assay (A1GAL2)
To initiate the functional assay, cryopreserved CHO-K1 cells overexpressing the human adenosine A1 receptor and containing a cAMP inducible beta-galactosidase reporter gene were thawed, centrifuged, DMSO containing media removed, and then seeded with fresh culture media into clear 384-well tissue culture treated plates (BD #353961) at a concentration of 10K cells/well. Prior to assay, these plates were cultured for two days at 37° C., 5% CO2, 90% Rh. On the day of the functional assay, culture media was removed and replaced with 45 μL assay medium (Hams/F-12 Modified (Mediatech # 10-080CV) supplemented w/0.1% BSA). Test compounds were diluted and 11 point curves created at a 1000× concentration in 100% DMSO. Immediately after addition of assay media to the cell plates, 50 nL of the appropriate test compound antagonist or agonist control curves were added to cell plates using a Cartesian Hummingbird. Compound curves were allowed to incubate at room temperature on cell plates for approximately 15 minutes before addition of a 4 nM r-PIA (Sigma P4532)/1 uM Forskolin (Sigma F3917) agonist challenge (5 μL volume). A control curve of r-PIA in 1 uM Forskolin, a DMSO/Media control, and a single dose of Forskolin were also included on each plate. After additions, cell plates were allowed to incubate at 37° C., 5% CO2, 90% Rh for 5.5-6 hours. After incubation, media was removed, and cell plates were washed 1×50 μL with DPBS w/o Ca & Mg (Mediatech 21-031-CV). Into dry wells, 20 μL of 1× Reporter Lysis Buffer (Promega E3971 (diluted in dH2O from 5× stock)) was added to each well and plates frozen at −20° C. overnight. For β-galactosidase enzyme colorimetric assay, plates were thawed out at room temperature and 20 μL 2× assay buffer (Promega) was added to each well. Color was allowed to develop at 37° C., 5% CO2, 90% Rh for 1-1.5 hours or until reasonable signal appeared. The colorimetric reaction was stopped with the addition of 60 μL/well 1M sodium carbonate. Plates were counted at 405 nm on a SpectraMax Microplate Reader (Molecular Devices). Data was analyzed in Microsoft Excel and IC/EC50 curves were fit using a standardized macro.

[2] = biological target: T2, human adenosine A2A receptor (Homo sapiens, UniProt P29274); assay: Adenosine A2A Receptor Functional Assay (A2AGAL2); assay type: cell-based; conditions: for IC50: CHO-K1 cells overexpressing human A2A, cAMP inducible beta-galactosidase reporter, antagonist vs 15 nM NECA challenge; for A1/A2A: ratio of A1Gal2 to A2AGal2 value
T2 construct: expressed in transfected cells; host or cells: CHO-K1 cells with a cAMP inducible beta-galactosidase reporter gene
Procedure: Adenosine A2A Receptor Functional Assay (A2AGAL2)
To initiate the functional assay, cryopreserved CHO-K1 cells overexpressing the human adenosine A2A receptor and containing a cAMP inducible beta-galactosidase reporter gene were thawed, centrifuged, DMSO containing media removed, and then seeded with fresh culture media into clear 384-well tissue culture treated plates (BD #353961) at a concentration of 10K cells/well. Prior to assay, these plates were cultured for two days at 37° C., 5% CO2, 90% Rh. On the day of the functional assay, culture media was removed and replaced with 45 μL assay medium (Hams/F-12 Modified (Mediatech # 10-080CV) supplemented w/0.1% BSA). Test compounds were diluted and 11 point curves created at a 1000× concentration in 100% DMSO. Immediately after addition of assay media to the cell plates, 50 nL of the appropriate test compound antagonist or agonist control curves were added to cell plates using a Cartesian Hummingbird. Compound curves were allowed to incubate at room temperature on cell plates for approximately 15 minutes before addition of a 15 nM NECA (Sigma E2387) agonist challenge (5 μL volume). A control curve of NECA, a DMSO/Media control, and a single dose of Forskolin (Sigma F3917) were also included on each plate. After additions, cell plates were allowed to incubate at 37° C., 5% CO2, 90% Rh for 5.5-6 hours. After incubation, media were removed, and cell plates were washed 1×50 μL with DPBS w/o Ca & Mg (Mediatech 21-031-CV). Into dry wells, 20 μL of 1× Reporter Lysis Buffer (Promega E3971 (diluted in dH2O from 5× stock)) was added to each well and plates frozen at −20° C. overnight. For β-galactosidase enzyme colorimetric assay, plates were thawed out at room temperature and 20 μL 2× assay buffer (Promega) was added to each well. Color was allowed to develop at 37° C., 5% CO2, 90% Rh for 1-1.5 hours or until reasonable signal appeared. The colorimetric reaction was stopped with the addition of 60 μL/well 1M sodium carbonate. Plates were counted at 405 nm on a SpectraMax Microplate Reader (Molecular Devices). Data was analyzed in Microsoft Excel and IC/EC50 curves were fit using a standardized macro.

T2 sequence (P29274 whole entry): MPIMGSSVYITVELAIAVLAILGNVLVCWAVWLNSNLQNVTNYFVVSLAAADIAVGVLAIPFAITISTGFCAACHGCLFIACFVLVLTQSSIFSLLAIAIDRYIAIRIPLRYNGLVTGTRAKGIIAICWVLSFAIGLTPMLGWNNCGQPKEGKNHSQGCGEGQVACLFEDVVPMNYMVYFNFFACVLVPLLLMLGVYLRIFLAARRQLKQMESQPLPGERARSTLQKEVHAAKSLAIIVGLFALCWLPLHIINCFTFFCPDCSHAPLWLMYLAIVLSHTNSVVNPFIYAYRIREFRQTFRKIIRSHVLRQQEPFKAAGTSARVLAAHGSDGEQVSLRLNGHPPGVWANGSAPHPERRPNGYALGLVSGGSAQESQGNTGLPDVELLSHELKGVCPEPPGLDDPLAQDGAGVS

Structure (SMILES) | IC50 [1] [nM] | IC50 [2] [nM] | A1/A2A [2]
Nc1nc(-c2ccc(F)cc2)c2c(n1)-c1c(cccc1-c1ccc(OCCN3CCOCC3)cc1)C2=O [Example 13, 2-Amino-4-(4-fluoro-phenyl)-9-[4-(2-morpholin-4-yl-ethoxy)-phenyl]-indeno[1,2-d]pyrimidin-5-one] | 270 | 3.9 | 69.2308
CCN1CCN(c2ccc(-c3cccc4c3-c3nc(N)nc(-c5ccc(F)cc5)c3C4=O)cc2)CC1 [Example 12, 2-Amino-9-[4-(4-ethyl-piperazin-1-yl)-phenyl]-4-(4-fluoro-phenyl)-indeno[1,2-d]pyrimidin-5-one] | 760 | 10 | 76
COCCN1CCN(c2ccc(-c3cccc4c3-c3nc(N)nc(-c5ccc(F)cc5)c3C4=O)cc2)CC1 [Example 8, 2-Amino-4-(4-fluoro-phenyl)-9-{4-[4-(2-methoxy-ethyl)-piperazin-1-yl]-phenyl}-indeno[1,2-d]pyrimidin-5-one] | 230 | 1.8 | 127.778
CCCN1CCN(c2ccc(-c3cccc4c3-c3nc(N)nc(-c5ccc(F)cc5)c3C4=O)cc2)CC1 [Example 15, 2-Amino-4-(4-fluoro-phenyl)-9-[4-(4-propyl-piperazin-1-yl)-phenyl]-indeno[1,2-d]pyrimidin-5-one] | 520 | 8.7 | 59.7701
CCC(C)N1CCN(c2ccc(-c3cccc4c3-c3nc(N)nc(-c5ccc(F)cc5)c3C4=O)cc2)CC1 (stereo not drawn) [Example 6, 2-Amino-9-[4-(4-sec-butyl-piperazin-1-yl)-phenyl]-4-(4-fluoro-phenyl)-indeno[1,2-d]pyrimidin-5-one] | 1400 | 9.8 | 142.857
N#Cc1ccc(-c2cccc3c2-c2nc(N)nc(-c4ccc(F)cc4)c2C3=O)cc1 [Example 10, 4-[2-Amino-4-(4-fluoro-phenyl)-5-oxo-5H-indeno[1,2-d]pyrimidin-9-yl]-benzonitrile] | 270 | 2.6 | 103.846
COc1ccc(-c2cccc3c2-c2nc(N)nc(-c4ccccc4)c2C3=O)cc1 [Example 17, 2-Amino-9-(4-methoxy-phenyl)-4-phenyl-indeno[1,2-d]pyrimidin-5-one] | 330 | 6.3 | 52.381
CC(C)CN1CCN(c2ccc(-c3cccc4c3-c3nc(N)nc(-c5ccc(F)cc5)c3C4=O)cc2)CC1 [Example 2, 2-Amino-4-(4-fluoro-phenyl)-9-[4-(4-isobutyl-piperazin-1-yl)-phenyl]-indeno[1,2-d]pyrimidin-5-one] | 4200 | 7.1 | 591.549
CC(C)CCN1CCN(c2ccc(-c3cccc4c3-c3nc(N)nc(-c5ccc(F)cc5)c3C4=O)cc2)CC1 [Example 11, 2-Amino-4-(4-fluoro-phenyl)-9-{4-[4-(3-methyl-butyl)-piperazin-1-yl]-phenyl}-indeno[1,2-d]pyrimidin-5-one] | 1100 | 11 | 100
CCC(CC)N1CCN(c2ccc(-c3cccc4c3-c3nc(N)nc(-c5ccc(F)cc5)c3C4=O)cc2)CC1 [Example 5, 2-Amino-9-{4-[4-(1-ethyl-propyl)-piperazin-1-yl]-phenyl}-4-(4-fluoro-phenyl)-indeno[1,2-d]pyrimidin-5-one] | 4200 | 23 | 182.609
Nc1nc(-c2ccc(F)cc2)c2c(n1)-c1c(cccc1-c1cccc(F)c1)C2=O [Example 3, 2-Amino-4-(4-fluoro-phenyl)-9-(3-fluoro-phenyl)-indeno[1,2-d]pyrimidin-5-one] | 8900 | 26 | 342.308
Nc1nc(-c2ccccc2)c2c(n1)-c1c(cccc1-c1ccccc1)C2=O [Example 14, 2-Amino-4,9-diphenyl-indeno[1,2-d]pyrimidin-5-one] | 570 | 8.6 | 66.2791
Nc1nc(-c2ccc(F)cc2)c2c(n1)-c1c(cccc1-c1ccc(N3CCN(CCC(F)(F)F)CC3)cc1)C2=O [Example 1, 2-Amino-4-(4-fluoro-phenyl)-9-{4-[4-(3,3,3-trifluoro-propyl)-piperazin-1-yl]-phenyl}-indeno[1,2-d]pyrimidin-5-one] | 5500 | 1.8 | 3055.56
Nc1nc(-c2ccc(F)cc2)c2c(n1)-c1c(cccc1-c1ccc(N3CCN(Cc4ccccc4)CC3)cc1)C2=O [Example 4, 2-Amino-9-[4-(4-benzyl-piperazin-1-yl)-phenyl]-4-(4-fluoro-phenyl)-indeno[1,2-d]pyrimidin-5-one] | 3100 | 10 | 310
Cc1cccc(-c2cccc3c2-c2nc(N)nc(-c4ccc(F)cc4)c2C3=O)c1 [Example 16, 2-Amino-4-(4-fluoro-phenyl)-9-m-tolyl-indeno[1,2-d]pyrimidin-5-one] | 1800 | 31 | 58.0645
Nc1nc(-c2ccc(F)cc2)c2c(n1)-c1c(cccc1-c1ccc(N3CCN(CC4CC4)CC3)cc1)C2=O [Example 7, 2-Amino-9-[4-(4-cyclopropylmethyl-piperazin-1-yl)-phenyl]-4-(4-fluoro-phenyl)-indeno[1,2-d]pyrimidin-5-one] | 1100 | 8.3 | 131.69
CC(C)N1CCN(c2ccc(-c3cccc4c3-c3nc(N)nc(-c5ccc(F)cc5)c3C4=O)cc2)CC1 [Example 9, 2-Amino-4-(4-fluoro-phenyl)-9-[4-(4-isopropyl-piperazin-1-yl)-phenyl]-indeno[1,2-d]pyrimidin-5-one] | 1800 | 16 | 112.5
